Laboratory results: the supplement of paper PMC10307832

How the values were obtained:
Assay in all cases: relative viability (nuclei count vs DMSO), 5 days (fraction); higher = more cells survive
[1] = compound: Cc1ccc2nc(NCCN)c3ncc(C)n3c2c1 + O=C(CCCCCCC(=O)Nc1ccccc1)NO [Vorinostat] (partner 1 µM)
Procedure, shortened: (§1)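 Relative viability is defined as nuclei in treated wells over nuclei in vehicle wells. Duplicate plates were run and medians reported. Lung cancer cell lines in 1536-well plates were dosed by pin tool one day after seeding, with one drug or with a fixed anchor-drug dose plus five library-drug doses (not always all listed) in √10 steps, and nuclei were counted after 5 days.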

[2] = compound: O=C(/C=C/c1ccccc1)NC(NC(=S)Nc1cccc2cccnc12)C(Cl)(Cl)Cl [Salubrinal] + CCNC(=O)c1noc(-c2cc(C(C)C)c(O)cc2O)c1-c1ccc(CN2CCOCC2)cc1 [Luminespib] (partner 0.01 µM)
Procedure, shortened: as §1

[3] = compound: O=C(/C=C/c1ccccc1)NC(NC(=S)Nc1cccc2cccnc12)C(Cl)(Cl)Cl [Salubrinal] + Cc1cc(Nc2cc(N3CCN(C)CC3)nc(Sc3ccc(NC(=O)C4CC4)cc3)n2)n[nH]1 [Tozasertib] (partner 0.1 µM)
Procedure, shortened: as §1

[4] = compound: O=C(/C=C/c1ccccc1)NC(NC(=S)Nc1cccc2cccnc12)C(Cl)(Cl)Cl [Salubrinal] + O=C(c1cc(Cc2n[nH]c(=O)c3ccccc23)ccc1F)N1CCN(C(=O)C2CC2)CC1 [Olaparib] (partner 8 µM)
Procedure, shortened: as §1

Cell Line	relative viability ([1]; first compound 0.04 µM)	relative viability ([1]; first compound 0.1265 µM)	relative viability ([1]; first compound 0.4 µM)	relative viability ([1]; first compound 1.265 µM)	relative viability ([1]; first compound 4 µM)	relative viability ([2]; first compound 0.08 µM)	relative viability ([2]; first compound 0.253 µM)	relative viability ([2]; first compound 0.8 µM)	relative viability ([2]; first compound 2.53 µM)	relative viability ([2]; first compound 8 µM)	relative viability ([3]; first compound 0.08 µM)	relative viability ([3]; first compound 0.253 µM)	relative viability ([3]; first compound 0.8 µM)	relative viability ([3]; first compound 2.53 µM)	relative viability ([3]; first compound 8 µM)	relative viability ([4]; first compound 0.08 µM)	relative viability ([4]; first compound 0.253 µM)	relative viability ([4]; first compound 0.8 µM)	relative viability ([4]; first compound 2.53 µM)	relative viability ([4]; first compound 8 µM)
NCI-H2405	1.2	0.943	0.946	1.01	0.93	0.591	0.865	0.62	0.612	0.668	0.722	0.748	0.801	0.713	0.696	0.951	0.879	0.925	0.822	0.928
NCI-H1755	0.806	0.899	0.728	0.696	0.857	0.414	0.637	0.707	0.293	0.378	0.573	0.61	0.611	0.457	0.507	1.01	0.937	0.922	0.857	0.893
LOU-NH91	1.02	0.902	0.87	0.931	0.858	0.304	0.381	0.358	0.305	0.386	0.794	0.639	0.626	0.706	0.59	0.967	0.908	0.897	0.9	0.961
NCI-H3122	1.13	1.28	1.01	1.05	1.37	0.117	0.112	0.0978	0.118	0.1	0.416	0.387	0.591	0.387	0.428	0.762	1.23	0.566	0.664	0.683
HCC-827	0.851	0.793	0.872	0.857	0.81	0.694	0.411	0.425	0.739	0.551	0.429	0.423	0.406	0.417	0.432	0.684	0.646	0.647	0.629	0.664
SK-LU-1	0.851	0.725	0.784	0.856	0.734	0.182	0.201	0.206	0.214	0.198	0.334	0.326	0.344	0.287	0.286	0.508	0.452	0.476	0.454	0.378
NCI-H1975	0.733	0.711	0.753	0.708	0.582	0.223	0.394	0.292	0.257	0.282	0.989	0.621	0.785	0.517	0.186	0.926	0.59	0.777	0.769	0.613
NCI-H1651	0.639	0.558	0.564	0.539	0.483	0.99	0.897	0.962	0.743	0.827	0.711	0.639	0.776	0.608	0.734	0.189	0.181	0.208	0.152	0.183
NCI-H441	0.925	0.822	0.848	0.806	0.731	0.312	0.39	0.393	0.338	0.385	0.554	0.431	0.74	0.576	0.448	0.732	0.448	0.675	0.542	0.514
LCLC-103H	0.859	0.821	0.686	0.697	0.751	1.11	0.82	1.02	1.04	0.916	0.487	0.445	0.404	0.498	0.42	0.866	0.572	0.853	0.769	0.76
LCLC-97TM1	0.865	0.867	0.526	0.759	0.737	0.894	0.798	0.823	0.849	0.842	0.238	0.157	0.266	0.188	0.165	0.289	0.345	0.376	0.412	0.383
NCI-H727	1.3		1.13	1.18	1.04	0.407	0.337	0.337	0.312	0.274	0.651	0.718	0.563	0.608	0.575	0.804	0.581	0.815	0.699	0.662
NCI-H1355	0.721	0.599	0.633	0.634	0.671	0.801	0.744	0.555	0.72	0.705	0.697	0.519	0.524	0.498	0.477	0.775	0.903	0.75	0.766	0.643
HOP-62	0.647	0.752	0.401	0.602	0.663	0.936	0.676	0.968	0.882	0.861	0.334	0.378	0.409	0.347	0.334	0.318	1.34	0.943	0.456	0.386
NCI-H2085	0.816	0.784	0.77	0.857	0.808	0.473	0.47	0.562	0.366	0.496	0.96	0.776	0.854	0.588	0.77	0.804	0.742	0.765	0.76	0.745
SW 900		0.517	0.415	0.421	0.487	0.173		0.175	0.189	0.207	0.539		0.681	0.568	0.337	1.04	1.07	0.892	0.793	0.801
